Data published in US9187411B2, “Leukotriene B4 antagonist compound” (Eli Lilly and Company, priority 2012, dated 2015).

Target: T1, PPARα (Homo sapiens, UniProt Q07869)
T1 construct: made in house; host or cells: Sf9 insect cells (baculovirus), crude cell lysate
T1 sequence (Q07869 1-468): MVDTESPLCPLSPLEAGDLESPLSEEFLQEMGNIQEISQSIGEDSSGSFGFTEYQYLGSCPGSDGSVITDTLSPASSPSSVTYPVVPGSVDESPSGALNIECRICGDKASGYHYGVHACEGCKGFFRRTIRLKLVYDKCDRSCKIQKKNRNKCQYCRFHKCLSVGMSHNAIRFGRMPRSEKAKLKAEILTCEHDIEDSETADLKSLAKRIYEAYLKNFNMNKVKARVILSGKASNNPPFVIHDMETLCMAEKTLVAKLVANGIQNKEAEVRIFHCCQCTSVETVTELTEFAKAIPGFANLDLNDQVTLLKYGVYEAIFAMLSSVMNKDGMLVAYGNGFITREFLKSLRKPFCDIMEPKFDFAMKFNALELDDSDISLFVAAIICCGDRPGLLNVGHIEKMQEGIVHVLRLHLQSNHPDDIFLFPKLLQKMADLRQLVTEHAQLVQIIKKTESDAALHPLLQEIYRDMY
T1 sequence (P19793 1-462 partner): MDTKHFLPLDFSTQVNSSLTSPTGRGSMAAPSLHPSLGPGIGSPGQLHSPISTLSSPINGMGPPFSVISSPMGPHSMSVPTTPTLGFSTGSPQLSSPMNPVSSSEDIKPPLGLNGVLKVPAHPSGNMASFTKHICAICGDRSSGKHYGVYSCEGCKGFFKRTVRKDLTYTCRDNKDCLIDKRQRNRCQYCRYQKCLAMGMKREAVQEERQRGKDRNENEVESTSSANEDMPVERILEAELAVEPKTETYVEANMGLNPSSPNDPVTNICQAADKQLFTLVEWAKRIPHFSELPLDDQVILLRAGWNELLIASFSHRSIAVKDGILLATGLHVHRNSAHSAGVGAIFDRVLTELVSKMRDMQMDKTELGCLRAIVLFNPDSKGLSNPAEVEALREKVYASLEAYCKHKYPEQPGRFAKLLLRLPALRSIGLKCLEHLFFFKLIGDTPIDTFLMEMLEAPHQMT
Assay: PPAR alpha binding assay (SPA)
Conditions: tritiated GW2331, n=3, read-out: Ki PPAR α binding
Description: The nucleotide sequences encoding full-length PPARα receptor DNA (National Center for Biotechnology Information (NCBI) Reference Sequence NM_005036.4), PPARδ receptor DNA (NCBI Reference Sequence NM_006238.4), PPARγ receptor DNA (NCBI Reference Sequence NM_015869.4) and Retinoid X Receptor (RXR) α DNA (NCBI Reference Sequence NM_002957.4) are synthesized and inserted into pFastBacHTb (Invitrogen) vector in-framed with the N-terminal HIS tag from the vector. […] The protein concentration is determined by Bradford assay using BSA as the standard.
Binding Affinities of Compounds for the PPAR α, δ, γ Receptors are Assessed Using Scintillation Proximity Assay (SPA) Technology.
Biotinylated oligonucleotide(DR2) ^5′[…]^3′ (SEQ ID NO: 1) is used for binding of receptors to Yttrium silicate streptavidin-coated SPA beads (Perkin Elmer). The PPAR α, δ, γ and Retinoid X Receptor (RXR) α receptors (endogenously expressed as heterodimers) are cell lysates from Baculovirus expression systems in Sf9 cells. […] Non-specific binding is determined in the presence of 10000 nM unlabeled GW2331 (Kliewer, S. A. et al Proc. Natl. Acad. Sci. USA (1997), 94: 4318-4323) for the alpha and delta receptors and 2-methyl-2-[4-[3-[propyl[(5-pyridin-2-ylthiophen-2-yl)sulfonyl]amino]-propyl]phenoxy]propanoic (WO 2004/073606) for the gamma receptor. […]

## CCCc1c(NC(=O)CC(C)(C)C(=O)[O-])cccc1OCCCOc1cc(O)c(-c2ccc(F)cc2)cc1CC.[Na+] [Example 2, Sodium 4-[[3-[3-[2-ethyl-4-(4-fluorophenyl)-5-hydroxy-phenoxy]propoxy]-2-propyl-phenyl]amino]-2,2-dimethyl-4-oxo-butanoate]
  Ki: ~617 nM
